Measured values: ChEMBL document CHEMBL5154908, “Design, Synthesis, and Biological Characterization of Inhaled p38α/β MAPK Inhibitors for the Treatment of Lung Inflammatory Diseases” (J Med Chem, 2022)
≈ marks a conversion by molar mass, not a printed value.

Tests used:
[1] = Metabolic stability in rat liver microsomes assessed as half life at 1 uM preincubated for 10 mins followed by NADPH addition and measured after 30 mins by LC/MS/MS analysis; format: ADME, Microsome; conditions: time 40 min
[2] = biological target: T1, Mitogen-activated protein kinase 14 (Homo sapiens, UniProt Q16539); assay: Inhibition of human recombinant full length GST-tagged p38alpha expressed in Escherichia coli preincubated for 2 hrs followed by ATP addition and measured after 1 hr by Alpha screen assay
T1 sequence (Q16539 whole entry): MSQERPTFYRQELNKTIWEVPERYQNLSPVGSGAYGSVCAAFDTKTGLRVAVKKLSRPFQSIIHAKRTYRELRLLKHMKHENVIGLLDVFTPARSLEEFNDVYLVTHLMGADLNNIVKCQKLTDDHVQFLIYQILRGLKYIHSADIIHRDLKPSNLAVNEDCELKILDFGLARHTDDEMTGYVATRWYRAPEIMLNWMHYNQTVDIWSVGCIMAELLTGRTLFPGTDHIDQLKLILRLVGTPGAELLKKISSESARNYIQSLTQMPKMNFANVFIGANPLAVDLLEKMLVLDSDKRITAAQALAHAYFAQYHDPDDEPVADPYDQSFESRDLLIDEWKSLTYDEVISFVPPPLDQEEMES

[3] = Inhibition of LPS-stimulated TNFalpha release in human PBMC cells preincubated for 1 hr followed by LPS stimulation and measured after 18 hrs; format: functional, cell-based
[4] = biological target: T1, Mitogen-activated protein kinase 14; assay: Displacement of SKF-86002 from human inactivated p38alpha assessed as dissociation half life incubated for 2 hrs by fluorescence based analysis
[5] = biological target: Mitogen-activated protein kinase 11 (Homo sapiens, UniProt Q15759); assay: Inhibition of recombinant human full length His-tagged p38beta expressed in baculovirus expression system preincubated for 2 hrs followed by ATP addition and measured after 1 hr by Alpha screen assay
Chain of Mitogen-activated protein kinase 11 (Q15759 whole entry): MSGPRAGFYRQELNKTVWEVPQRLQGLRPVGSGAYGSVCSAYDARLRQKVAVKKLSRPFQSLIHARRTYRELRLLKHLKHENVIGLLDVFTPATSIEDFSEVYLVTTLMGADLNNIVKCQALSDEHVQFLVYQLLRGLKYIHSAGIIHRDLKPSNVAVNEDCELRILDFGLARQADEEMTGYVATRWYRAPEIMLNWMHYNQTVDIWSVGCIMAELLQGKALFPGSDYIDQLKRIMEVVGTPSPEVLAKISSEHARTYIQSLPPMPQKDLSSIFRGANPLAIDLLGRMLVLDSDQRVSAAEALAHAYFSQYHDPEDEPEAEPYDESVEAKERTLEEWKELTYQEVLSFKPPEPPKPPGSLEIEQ

[6] = biological target: T2, Mitogen-activated protein kinase 12 (Homo sapiens, UniProt P53778); assay: Inhibition of recombinant human full length His-tagged p38gamma expressed in baculovirus expression system preincubated for 2 hrs followed by ATP addition and measured after 1 hr by Alpha screen assay
T2 sequence (P53778 whole entry): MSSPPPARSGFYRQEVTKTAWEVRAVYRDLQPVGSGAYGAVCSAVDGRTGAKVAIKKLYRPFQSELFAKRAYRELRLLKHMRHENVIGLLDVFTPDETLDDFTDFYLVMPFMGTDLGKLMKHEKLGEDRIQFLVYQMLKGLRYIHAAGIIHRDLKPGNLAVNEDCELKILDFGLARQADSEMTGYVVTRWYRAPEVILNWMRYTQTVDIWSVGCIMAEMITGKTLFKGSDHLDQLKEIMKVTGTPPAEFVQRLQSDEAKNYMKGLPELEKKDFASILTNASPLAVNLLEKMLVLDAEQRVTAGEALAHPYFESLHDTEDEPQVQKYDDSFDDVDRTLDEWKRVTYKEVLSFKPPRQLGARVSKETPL

[7] = biological target: T3, Mitogen-activated protein kinase 13 (Homo sapiens, UniProt O15264); assay: Inhibition of recombinant human full length His-tagged p38delta expressed in baculovirus expression system preincubated for 2 hrs followed by ATP addition and measured after 1 hr by Alpha screen assay
T3 sequence (O15264 whole entry): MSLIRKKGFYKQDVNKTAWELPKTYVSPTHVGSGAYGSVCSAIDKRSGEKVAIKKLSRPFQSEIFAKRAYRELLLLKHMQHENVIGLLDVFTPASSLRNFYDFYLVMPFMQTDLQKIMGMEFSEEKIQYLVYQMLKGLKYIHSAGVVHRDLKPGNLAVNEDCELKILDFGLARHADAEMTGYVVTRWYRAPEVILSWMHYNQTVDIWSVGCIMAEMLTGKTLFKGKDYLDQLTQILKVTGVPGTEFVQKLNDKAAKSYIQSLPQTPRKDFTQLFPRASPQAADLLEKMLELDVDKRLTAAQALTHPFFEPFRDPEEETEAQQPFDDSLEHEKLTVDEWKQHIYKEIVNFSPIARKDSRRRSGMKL

[8] = Solubility of the compound at >=1 mg/ml measured after 30 mins by HPLC analysis; format: physicochemical
[9] = Permeability across apical to basolateral side in human Caco-2 cells at 10 uM measured after 60 mins by LC/MS/MS analysis; format: ADME, cell-based; conditions: read-out: permeability
[10] = Protein binding in rat plasma at 10 uM incubated for 4 hrs by LC/MS/MS analysis; format: ADME, cell-free; conditions: read-out: PPB (converted)
[11] = Protein binding in rat lung homogenate at 10 uM incubated for 4 hrs by LC/MS/MS analysis; format: ADME, tissue-based; conditions: read-out: PB (converted)
[12] = Cmax in Sprague-Dawley rat plasma at 0.03 mg/kg, IT measured after 0.8 hrs by LC/MS/MS analysis; format: ADME, organism-based; parameters: dose 0.03 mg/kg, time 0.8 hrs, route it
[13] = Cmax in Sprague-Dawley rat lung homogenate at 0.03 mg/kg, IT measured after 0.8 hrs by LC/MS/MS analysis; format: ADME, organism-based; parameters: time 0.8 hrs, dose 0.03 mg/kg, route it
[14] = Selectivity index, ratio of drug concentration in Sprague-Dawley rat lung homogenate to IC50 for human p38alpha; format: tissue-based; conditions: tissue homogenate
[15] = Drug uptake in Sprague-Dawley rat lung homogenate at 0.03 mg/kg, IT measured after 7 hrs by LC/MS/MS analysis; format: ADME, organism-based; conditions: in vivo, other
[16] = Drug uptake in Sprague-Dawley rat lung homogenate at 0.03 mg/kg, IT measured after 24 hrs by LC/MS/MS analysis; format: ADME, organism-based; conditions: in vivo, other
[17] = Efflux ratio of permeability in human Caco-2 cells at 10 uM measured after 60 mins by LC-MS/MS analysis; format: ADME, cell-based
Rattus norvegicus [18] = assay: Antiinflammatory activity against LPS-induced Sprague-Dawley rat inflammatory model assessed as inhibition of neutrophil cells release in BALF at 0.3 mg/kg, IT measured after 12 hrs relative to control; format: functional
[19] = Drug concentration in Sprague-Dawley rat lung homogenate at 0.3 mg/kg, IT measured after 24 hrs by LC/MS/MS analysis; format: ADME, organism-based; conditions: read-out: Ct
Rattus norvegicus [20] = assay: Antiinflammatory activity against LPS-induced Sprague-Dawley rat inflammatory model assessed as inhibition of neutrophil cells release in BALF at 0.1 mg/kg, IT preincubated for 2 hrs followed by LPS-stimulation and measured after 4 hrs relative to control; format: functional; parameters: scale not given: the % may be the effect or the level left; conditions: time 6 hrs
[21] = biological target: Ephrin type-A receptor 4 (Homo sapiens) (UniProt P54764); assay: Inhibition of EphA4 (unknown origin) at 1 uM relative to control
Chain of Ephrin type-A receptor 4 (Homo sapiens) (P54764 whole entry, the tested form may be a part): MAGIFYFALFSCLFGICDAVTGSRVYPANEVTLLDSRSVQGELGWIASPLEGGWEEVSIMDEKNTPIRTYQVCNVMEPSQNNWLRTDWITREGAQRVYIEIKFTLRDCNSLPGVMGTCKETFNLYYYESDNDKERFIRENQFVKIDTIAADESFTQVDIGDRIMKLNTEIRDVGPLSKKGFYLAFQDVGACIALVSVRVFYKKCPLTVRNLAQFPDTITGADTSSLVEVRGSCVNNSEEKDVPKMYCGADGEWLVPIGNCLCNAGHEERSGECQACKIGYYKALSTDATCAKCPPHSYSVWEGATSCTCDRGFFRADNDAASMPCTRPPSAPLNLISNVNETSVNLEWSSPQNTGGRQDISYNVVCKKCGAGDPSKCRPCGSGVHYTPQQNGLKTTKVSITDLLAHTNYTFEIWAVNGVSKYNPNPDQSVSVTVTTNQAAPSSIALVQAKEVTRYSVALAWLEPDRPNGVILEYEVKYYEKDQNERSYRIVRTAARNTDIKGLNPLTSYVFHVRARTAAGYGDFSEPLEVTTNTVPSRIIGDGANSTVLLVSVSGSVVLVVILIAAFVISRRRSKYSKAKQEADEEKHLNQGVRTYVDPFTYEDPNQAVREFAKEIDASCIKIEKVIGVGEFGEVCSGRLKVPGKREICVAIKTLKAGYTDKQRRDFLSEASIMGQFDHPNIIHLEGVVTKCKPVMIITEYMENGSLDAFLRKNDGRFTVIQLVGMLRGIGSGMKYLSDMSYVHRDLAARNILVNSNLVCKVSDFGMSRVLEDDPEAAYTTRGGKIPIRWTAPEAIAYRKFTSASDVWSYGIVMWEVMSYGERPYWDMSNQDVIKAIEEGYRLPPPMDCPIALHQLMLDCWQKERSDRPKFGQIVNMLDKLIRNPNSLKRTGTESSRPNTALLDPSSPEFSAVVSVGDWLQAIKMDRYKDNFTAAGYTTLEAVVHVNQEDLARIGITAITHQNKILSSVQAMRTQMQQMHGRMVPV

[22] = biological target: Epithelial discoidin domain-containing receptor 1 (Homo sapiens) (UniProt Q08345); assay: Inhibition of human DDR1 at 100 nM by KINOMEscan assay relative to control
Chain of Epithelial discoidin domain-containing receptor 1 (Homo sapiens) (Q08345 whole entry, the tested form may be a part): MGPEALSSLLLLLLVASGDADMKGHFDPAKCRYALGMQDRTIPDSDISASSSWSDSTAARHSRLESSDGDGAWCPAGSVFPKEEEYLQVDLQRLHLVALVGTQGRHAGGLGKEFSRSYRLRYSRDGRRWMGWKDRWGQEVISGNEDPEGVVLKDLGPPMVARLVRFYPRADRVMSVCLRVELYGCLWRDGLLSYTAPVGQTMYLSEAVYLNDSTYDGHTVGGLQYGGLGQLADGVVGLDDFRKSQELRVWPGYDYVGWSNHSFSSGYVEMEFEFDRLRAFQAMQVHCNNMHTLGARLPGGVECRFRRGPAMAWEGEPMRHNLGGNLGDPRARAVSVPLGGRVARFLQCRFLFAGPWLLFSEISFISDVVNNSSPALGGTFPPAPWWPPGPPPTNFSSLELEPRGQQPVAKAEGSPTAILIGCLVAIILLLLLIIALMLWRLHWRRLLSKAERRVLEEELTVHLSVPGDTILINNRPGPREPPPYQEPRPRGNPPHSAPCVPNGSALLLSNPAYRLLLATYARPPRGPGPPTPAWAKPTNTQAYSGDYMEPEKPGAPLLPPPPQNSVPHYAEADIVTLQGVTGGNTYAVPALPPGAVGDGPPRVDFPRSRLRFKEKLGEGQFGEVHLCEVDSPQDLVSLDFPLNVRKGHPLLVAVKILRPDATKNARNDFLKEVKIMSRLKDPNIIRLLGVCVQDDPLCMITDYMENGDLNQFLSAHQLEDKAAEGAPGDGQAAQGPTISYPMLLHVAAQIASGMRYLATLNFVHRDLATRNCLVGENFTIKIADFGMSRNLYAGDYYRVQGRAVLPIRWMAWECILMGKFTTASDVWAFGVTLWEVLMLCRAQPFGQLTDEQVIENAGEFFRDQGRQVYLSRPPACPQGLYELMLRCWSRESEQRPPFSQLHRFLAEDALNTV

[23] = biological target: T4, Discoidin domain-containing receptor 2 (Homo sapiens) (UniProt Q16832); assay: Inhibition of human DDR2 at 100 nM by KINOMEscan assay relative to control
T4 sequence (whole entry): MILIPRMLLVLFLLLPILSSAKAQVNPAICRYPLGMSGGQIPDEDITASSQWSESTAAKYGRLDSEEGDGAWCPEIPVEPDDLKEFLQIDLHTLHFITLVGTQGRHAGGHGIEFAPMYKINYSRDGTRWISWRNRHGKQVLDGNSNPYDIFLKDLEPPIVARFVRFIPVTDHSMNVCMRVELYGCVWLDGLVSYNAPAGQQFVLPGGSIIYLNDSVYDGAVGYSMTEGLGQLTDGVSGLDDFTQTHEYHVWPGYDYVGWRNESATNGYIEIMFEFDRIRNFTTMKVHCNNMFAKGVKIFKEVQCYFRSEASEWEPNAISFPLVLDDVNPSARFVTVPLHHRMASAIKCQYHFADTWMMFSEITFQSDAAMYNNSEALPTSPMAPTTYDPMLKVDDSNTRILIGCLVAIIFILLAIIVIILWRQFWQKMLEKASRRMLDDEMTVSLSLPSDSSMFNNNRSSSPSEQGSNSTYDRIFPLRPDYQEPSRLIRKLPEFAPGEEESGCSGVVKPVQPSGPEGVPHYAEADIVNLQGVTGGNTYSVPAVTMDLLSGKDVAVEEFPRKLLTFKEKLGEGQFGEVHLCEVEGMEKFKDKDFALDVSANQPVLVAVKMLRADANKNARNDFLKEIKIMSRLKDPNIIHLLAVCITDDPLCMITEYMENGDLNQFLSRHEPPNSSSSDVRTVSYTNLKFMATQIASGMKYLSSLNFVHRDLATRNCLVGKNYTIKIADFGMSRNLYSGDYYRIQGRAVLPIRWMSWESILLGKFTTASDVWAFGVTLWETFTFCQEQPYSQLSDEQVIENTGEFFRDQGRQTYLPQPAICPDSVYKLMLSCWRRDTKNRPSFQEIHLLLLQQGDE

[24] = biological target: TRAF2 and NCK-interacting protein kinase (Homo sapiens) (UniProt Q9UKE5); assay: Inhibition of TNIK (unknown origin) at 100 nM by KINOMEscan assay relative to control
Chain of TRAF2 and NCK-interacting protein kinase (Homo sapiens) (Q9UKE5 whole entry, looked up): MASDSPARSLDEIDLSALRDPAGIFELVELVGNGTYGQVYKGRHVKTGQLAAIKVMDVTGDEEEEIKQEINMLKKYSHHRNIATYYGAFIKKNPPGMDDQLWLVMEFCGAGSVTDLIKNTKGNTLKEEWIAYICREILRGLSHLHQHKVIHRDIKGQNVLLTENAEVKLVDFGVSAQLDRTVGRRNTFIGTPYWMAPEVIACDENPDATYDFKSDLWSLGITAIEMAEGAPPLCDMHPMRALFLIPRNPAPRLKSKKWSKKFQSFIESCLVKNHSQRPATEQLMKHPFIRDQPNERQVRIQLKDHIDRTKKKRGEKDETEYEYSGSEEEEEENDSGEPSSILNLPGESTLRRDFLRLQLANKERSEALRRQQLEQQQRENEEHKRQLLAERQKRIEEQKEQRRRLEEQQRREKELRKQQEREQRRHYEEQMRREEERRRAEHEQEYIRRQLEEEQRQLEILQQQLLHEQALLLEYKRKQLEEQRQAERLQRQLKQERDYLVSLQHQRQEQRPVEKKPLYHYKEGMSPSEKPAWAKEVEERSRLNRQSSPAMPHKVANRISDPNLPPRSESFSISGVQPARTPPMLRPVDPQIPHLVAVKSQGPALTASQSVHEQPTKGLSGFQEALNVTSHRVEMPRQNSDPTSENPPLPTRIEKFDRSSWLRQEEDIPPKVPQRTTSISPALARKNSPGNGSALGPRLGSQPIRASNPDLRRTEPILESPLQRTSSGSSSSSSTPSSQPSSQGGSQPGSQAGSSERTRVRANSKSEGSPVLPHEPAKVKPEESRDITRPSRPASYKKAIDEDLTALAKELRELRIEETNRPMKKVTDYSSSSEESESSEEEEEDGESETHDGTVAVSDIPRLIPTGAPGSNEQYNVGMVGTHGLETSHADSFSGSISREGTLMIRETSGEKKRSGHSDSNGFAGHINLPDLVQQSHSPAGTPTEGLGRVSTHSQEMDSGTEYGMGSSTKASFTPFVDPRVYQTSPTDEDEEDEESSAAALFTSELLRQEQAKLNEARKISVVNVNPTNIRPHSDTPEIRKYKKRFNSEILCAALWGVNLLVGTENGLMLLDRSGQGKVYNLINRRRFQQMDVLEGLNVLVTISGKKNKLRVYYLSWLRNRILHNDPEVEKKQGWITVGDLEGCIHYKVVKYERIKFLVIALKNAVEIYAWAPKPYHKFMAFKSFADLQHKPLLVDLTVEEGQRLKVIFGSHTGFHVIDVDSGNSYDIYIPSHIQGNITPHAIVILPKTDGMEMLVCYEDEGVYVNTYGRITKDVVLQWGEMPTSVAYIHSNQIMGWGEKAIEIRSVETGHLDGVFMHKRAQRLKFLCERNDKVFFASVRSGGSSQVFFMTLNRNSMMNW

[25] = biological target: Citron Rho-interacting kinase (Homo sapiens) (UniProt O14578); assay: Inhibition of human CIT at 100 nM by KINOMEscan assay relative to control
[26] = biological target: T1, Mitogen-activated protein kinase 14; assay: Binding affinity to biotinylated P38alpha assessed as dissociation half life by SPR analysis
[27] = Cmax in Sprague-Dawley rat lung homogenate at 0.3 mg/kg, IT measured after 0.8 hrs by LC/MS/MS analysis; format: ADME, organism-based; parameters: time 0.8 hrs, dose 0.3 mg/kg, route it
[28] = Cmax in Sprague-Dawley rat plasma at 0.3 mg/kg, IT measured after 0.8 hrs by LC/MS/MS analysis; format: ADME, organism-based; parameters: time 0.8 hrs, dose 0.3 mg/kg, route it

SMILES | half-life at 1 µM [1] | IC50 [2] | IC50 [3] | T1/2 [4] | IC50 [5] | IC50 [6] | IC50 [7] | solubility at 0.5 h [8] | Papp A→B at 1 h, 10 µM [9] | fraction unbound at 4 h, 10 µM [10] | fraction unbound at 4 h, 10 µM [11] | Cmax [12] | Cmax [13] | Ratio [14] | Drug uptake [15] | Drug uptake [16] | efflux ratio at 1 h, 10 µM [17] | inhibition in vivo at 0.3 mg/kg (Rattus norvegicus [18]) | concentration at 24 h [19] | other results
C[C@H]1CCCCN1c1nnc2ccc(O[C@@H]3CC[C@H](NC(=O)Nc4cc(C(C)(C)C)nn4-c4cccc(OCCN(C)C)c4)c4ccccc43)cn12 | 0.333 h | 0.2 nM | 1 nM | > 16 h | 1.3 nM | 2860 nM | > 10000 nM | 100 µg/mL (≈ 142 µM) | 1.4 ×10⁻⁶ cm/s | 0.003 | 0.001 | 10 nM | 2700 nM | 4.9 | 8.4% | 1.6% | > 2.5 | 49% | 970 nM | 
Cc1ccc(-n2nc(C(C)(C)C)cc2NC(=O)N[C@H]2CC[C@@H](Oc3ccc4nnc(N5CCC(CO)CC5)n4c3)c3ccccc32)cc1 | 0.25 h | 0.3 nM | 1 nM | > 16 h | 0.8 nM | 10 nM | 931 nM | 10 µg/mL (≈ 15.4 µM) | 3.3 ×10⁻⁶ cm/s | 0.001 | 0.009 | 50 nM | 5070 nM | > 300 | 99% | 23% | > 2.5 | 19% | 10300 nM | 
CC(C)(C)c1cc(NC(=O)NCc2ccccc2Sc2ccc3nnc(-c4ccccc4SCCO)n3c2)n(-c2ccc(O)c(Cl)c2)n1 [PF-03715455] |  |  | 8 nM |  |  |  |  |  |  |  |  |  |  |  |  |  |  |  |  | Activity (Rattus norvegicus [20]): 14%
C[C@H]1CCCCN1c1nnc2ccc(O[C@@H]3CC[C@H](NC(=O)Nc4cc(C(C)(C)C)nn4-c4cnn(CCN(C)C)c4)c4ccccc43)cn12 [listing 1 of 2 here] |  |  |  | > 16 h |  |  |  |  |  |  |  |  |  |  |  |  |  |  |  | inhibition [21]: 82%; inhibition [22]: > 50%; inhibition [23]: > 50%; inhibition [24]: > 50%; inhibition [25]: > 50%; T1/2 [26]: 51 h
Cc1ccc(-n2nc(C(C)(C)C)cc2NC(=O)N[C@H]2CC[C@@H](Oc3ccc4nnc(N5CCCCC5)n4c3)c3ccccc32)cc1 | < 0.167 h | 0.3 nM | 0.3 nM | > 16 h | 0.4 nM | 16 nM | > 10000 nM | 30 µg/mL (≈ 48.5 µM) | 2.5 ×10⁻⁶ cm/s | < 0.001 | 0.001 | 60 nM | 3180 nM | 40 | 21% | 19% | > 2.5 | 20% | 12100 nM | 
C[C@H]1CCCCN1c1nnc2ccc(O[C@@H]3CC[C@H](NC(=O)Nc4cc(C(C)(C)C)nn4-c4cnn(CCN(C)C)c4)c4ccccc43)cn12 [listing 2 of 2 here] | < 0.0833 h | 0.1 nM | 1 nM |  |  |  | 4100 nM | 800 µg/mL (≈ 1180 µM) | 1.2 ×10⁻⁶ cm/s | 0.014 | 0.005 |  |  | 70 | 7.2% | 1.7% | > 2.5 | 56% | 1400 nM | Cmax [27]: 3040 nM; Cmax [28]: 20 nM
